Reference: PMC8088928 (Cancer Science, 2021)

How the values were obtained:
[1] = target: Recombinant Human Her2/ErbB2 Protein (Homo sapiens, UniProt P04626); experiment: Microscale thermophoresis; type: binding
MKN‐45 cells = experiment: CCK‐8 cytotoxicity / proliferation assay; type: cell-based, human; settings: for IC50: Homo sapiens, MKN-45, 72 h, read-out: IC50 (cytotoxic activity); for Effect on proliferation of tumor cells (in words): MKN‐45 cells, 72 h, CCK‐8
Human PD‐L1 Fc Protein = Human PD‐L1 Fc Protein (Homo sapiens, UniProt Q9NZQ7); experiment: Microscale thermophoresis; type: binding
HER2 kinase = HER2 kinase (Homo sapiens, UniProt P04626); experiment: Enzyme activity assay of HER2; type: biochemical
Sequence of HER2 kinase (P04626 23-1255): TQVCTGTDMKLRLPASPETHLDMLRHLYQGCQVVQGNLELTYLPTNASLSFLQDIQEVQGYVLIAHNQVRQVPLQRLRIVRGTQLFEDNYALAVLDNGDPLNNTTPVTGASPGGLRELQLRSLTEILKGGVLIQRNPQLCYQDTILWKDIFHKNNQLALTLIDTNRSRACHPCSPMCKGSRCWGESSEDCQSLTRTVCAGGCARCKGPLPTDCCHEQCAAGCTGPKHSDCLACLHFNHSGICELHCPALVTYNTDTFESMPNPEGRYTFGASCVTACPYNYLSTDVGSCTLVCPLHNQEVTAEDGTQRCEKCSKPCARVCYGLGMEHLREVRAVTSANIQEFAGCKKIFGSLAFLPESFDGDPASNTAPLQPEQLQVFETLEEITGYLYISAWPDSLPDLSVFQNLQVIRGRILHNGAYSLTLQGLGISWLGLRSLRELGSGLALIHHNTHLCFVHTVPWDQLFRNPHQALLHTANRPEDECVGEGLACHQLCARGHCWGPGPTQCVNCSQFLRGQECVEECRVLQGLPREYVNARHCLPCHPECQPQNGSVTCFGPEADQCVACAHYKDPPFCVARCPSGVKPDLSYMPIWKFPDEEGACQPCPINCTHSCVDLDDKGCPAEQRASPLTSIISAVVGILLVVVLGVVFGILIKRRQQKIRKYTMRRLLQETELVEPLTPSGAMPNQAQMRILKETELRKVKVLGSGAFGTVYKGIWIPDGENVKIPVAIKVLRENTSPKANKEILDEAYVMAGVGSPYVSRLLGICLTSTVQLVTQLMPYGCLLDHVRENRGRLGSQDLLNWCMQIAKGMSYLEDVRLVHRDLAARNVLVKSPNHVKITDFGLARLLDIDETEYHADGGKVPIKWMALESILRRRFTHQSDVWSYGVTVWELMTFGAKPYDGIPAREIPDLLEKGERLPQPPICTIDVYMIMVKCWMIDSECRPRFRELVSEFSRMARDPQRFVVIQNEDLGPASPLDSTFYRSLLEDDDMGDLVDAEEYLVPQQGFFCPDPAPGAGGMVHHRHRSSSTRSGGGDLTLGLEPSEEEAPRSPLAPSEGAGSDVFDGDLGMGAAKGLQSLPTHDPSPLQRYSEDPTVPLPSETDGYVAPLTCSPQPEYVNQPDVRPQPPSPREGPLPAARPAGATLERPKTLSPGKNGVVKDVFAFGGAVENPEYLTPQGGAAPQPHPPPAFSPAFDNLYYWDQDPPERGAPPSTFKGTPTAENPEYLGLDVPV

Sequence of Human PD‐L1 Fc Protein (Q9NZQ7 19-238 limits assumed): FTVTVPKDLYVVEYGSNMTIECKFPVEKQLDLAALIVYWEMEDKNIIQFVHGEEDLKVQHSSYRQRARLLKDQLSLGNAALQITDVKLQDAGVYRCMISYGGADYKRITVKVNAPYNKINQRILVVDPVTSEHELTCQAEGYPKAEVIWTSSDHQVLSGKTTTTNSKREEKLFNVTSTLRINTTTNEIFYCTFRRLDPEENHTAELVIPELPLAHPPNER
Sequence of Recombinant Human Her2/ErbB2 Protein (P04626 23-1255): as the sequence (P04626 23-1255) above

SMILES | Kd [1] | IC50 (MKN‐45 cells) | Effect on proliferation of tumor cells (in words) (MKN‐45 cells) | Kd (Human PD‐L1 Fc Protein) | IC50 (HER2 kinase)
O=c1c(-c2ccc(O)cc2)coc2cc(O)ccc12 [Daidzein] | 3700 nM | 21500 nM | potential antiproliferative effects |  | 
COc1cc(-c2oc3cc(O)cc(O)c3c(=O)c2O)ccc1O [Isorhamnetin] |  | 10800 nM | potential antiproliferative effects | 667 nM | 
COc1ccc(-c2coc3cc(O)ccc3c2=O)cc1 [Formononetin] |  |  | could not inhibit proliferation of tumor cells | 355 nM | 
O=c1c(O)c(-c2ccc(O)c(O)c2)oc2cc(O)cc(O)c12 [Quercetin] | 490 nM | 19300 nM | potential antiproliferative effects |  | 570 nM
